Results on 2 compounds are retold here after patent US6369268B1, “Diester amine adducts” (Ciba Specialty Chemicals Corporation, priority 1997, dated 2002).

Holding throughout (assay): Agar diffusion test (microbiological test)
Common to all, as to type: cell-based
Common to all, as to conditions: 100 μl of a 1% solution in abs. ethanol; 48 h incubation at 37° C.
On the technique in general: Agar diffusion results depend on both activity and mobility in agar.

Test [1] has as its system Corynebacterium xerosis ATCC 373. The procedure:
(§1) Casein soybean flour peptone agar (Merck)
(§2) Casein soybean flour peptone broth (Merck)
Corynebacterium xerosis ATCC 373
(§3) Preparation of the Germ Suspensions
(§4) The test germs are cultivated overnight (about 18 h) at 37° C. in Caso-Broth (5 ml test tubes). The germ count of the overnight cultivation is determined by the spiralometer method and must be between 10^8-10^9 KBE/ml.
(§5) The culture is diluted to about 10^7 KBE/ml with 0.85% NaCl solution, pH 7.2.
(§6) Petri dishes are filled with about 18 ml of sterile nutrient agar which is allowed to solidify.
(§7) 3.5 ml of the germ dilution in 0.85% NaCl are pipetted into 500 ml of still liquid agar which is cooled in a water bath to 47° C. and homogenised.
(§8) 6 ml of the germ-infested agar are evenly distributed on the solidified ground layer. After a drying and storage time of about 24 hours at 4° C. the dishes are ready for the test.
(§9) Drop Amount 100 μl of a 1% solution of the tetraester of formula (104) in abs. ethanol are pipetted into the centre of the dish and are dried for about 30 minutes at room temperature (the substances run into zones of about 20-30 mm).
(§10) Results of the Agar Diffusion Test
(§11) After a 48 h incubation of the agar dishes at 37° C., the growth of the […] in the drop zone is assessed.

The subject of test [2] is Staphylococcus aureus ATCC 9144. The procedure:
as §1, §2
Staphylococcus aureus ATCC 9144
as §3, §4, §5, §6, §7, §8, §9, §10, §11

The subject of test [3] is Escherichia coli NCTC 8196. Here is the method:
as §1, §2
Escherichia coli NCTC 8196
as §3, §4, §5, §6, §7, §8, §9, §10, §11

Molecules are shown by their SMILES.

As for `CCCCC(CC)COC(=O)CC(NCCNC(CC(=O)OCC(CC)CCCC)C(=O)OCC(CC)CCCC)C(=O)OCC(CC)CCCC` (mixture of isomers) [ethylenediaminedisuccinic acid tetra(isooctyl)ester (isomer mixture), [S,S]-/[R,R]-/[R,S]-Ethylenediaminedisuccinic acid tetraisooctyl ester (isomer mixture)], the “growth in the drop zone, Corynebacterium xerosis ATCC 373” value in test [1] was “inhibition”. In addition, the “growth in the drop zone, Staphylococcus aureus ATCC 9144” value in test [2] is listed as “no inhibition”. The “growth in the drop zone, Escherichia coli NCTC 8196” value in test [3] is given as “no inhibition”.
`CCCCC(CC)COC(=O)C[C@H](NCCN[C@@H](CC(=O)OCC(CC)CCCC)C(=O)OCC(CC)CCCC)C(=O)OCC(CC)CCCC` (stereo partly drawn) [[S,S]-Ethylenediaminedisuccinic acid tetraisooctyl ester]: in test [1], the “growth in the drop zone, Corynebacterium xerosis ATCC 373” value is recorded as “inhibition”. The “growth in the drop zone, Staphylococcus aureus ATCC 9144” value in test [2] is given as “no inhibition”. In addition, in test [3], the “growth in the drop zone, Escherichia coli NCTC 8196” value is listed as “no inhibition”.
